Drawing on patent US9365576B2, “Pyrrolopyrrolidinone compounds” (Novartis AG, priority 2012, dated 2016), this text covers IC50 for 20 molecules.

human MDM4 protein (amino acids 2-185), sequence (O15151 2-185): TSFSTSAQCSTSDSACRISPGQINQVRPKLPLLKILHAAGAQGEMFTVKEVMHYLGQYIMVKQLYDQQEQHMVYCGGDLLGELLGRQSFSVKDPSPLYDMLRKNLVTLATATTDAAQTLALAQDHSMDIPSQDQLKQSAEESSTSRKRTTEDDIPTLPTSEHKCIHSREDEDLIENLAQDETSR

In one test the target is T1, human MDM2 protein (amino acids 2-188) (Homo sapiens (Human), UniProt Q00987). Description: TR-FRET assay, p53-MDM2 Assay 1. In kind it is binding. The conditions noted are these: 1.25 nM MDM2-biotinylated, 10 nM Cy5-p53 peptide. As for the experimental part: (§1) The inhibition of p53-MDM2 and p53-MDM4 interactions is measured by time resolved fluorescence energy transfer (TR-FRET). Fluorescence energy transfer (or Foerster resonance energy transfer) describes an energy transfer between donor and acceptor fluorescent molecules. For this assay, human MDM2 protein (amino acids 2-188) and human MDM4 protein (amino acids 2-185), tagged with a C-terminal biotin moiety, are used in combination with a Europium labeled streptavidin (Perkin Elmer, Inc., Waltham, Mass., USA) serving as the donor fluorophore. The p53 derived, Cy5 labeled peptide Cy5-TFSDLWKLL (p53 aa18-26) is the energy acceptor. Upon excitation of the donor molecule at 340 nm, binding interaction between MDM2 or MDM4 and the p53 peptide induces energy transfer and enhanced response at the acceptor emission wavelength at 665 nm. Disruption of the formation of the p53-MDM2 or p53-MDM4 complex due to an inhibitor molecule binding to the p53 binding site of MDM2 or MDM4 results in increased donor emission at 620 nm. The ratiometric FRET assay readout is calculated from the raw data of the two distinct fluorescence signals measured in time resolved mode (fluorescence 665 nm/fluorescence 620 nm×1000).
T1 sequence (Q00987 2-188): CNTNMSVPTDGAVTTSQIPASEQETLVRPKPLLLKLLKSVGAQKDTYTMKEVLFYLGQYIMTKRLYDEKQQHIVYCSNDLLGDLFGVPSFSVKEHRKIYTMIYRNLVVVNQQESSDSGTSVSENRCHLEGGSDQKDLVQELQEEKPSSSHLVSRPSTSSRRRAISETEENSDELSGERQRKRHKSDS
(§2) After addition of 1.25 nM MDM2-biotinylated or 2.5 nM MDM4-biotinylated (internal preparations), and 0.625 nM Europium labeled streptavidin (Perkin Elmer), the solution is pre-incubated for 15 minutes at room temperature, then 10 nM Cy5-p53 peptide (internal preparation) is added before an incubation at room temperature for 15 minutes prior to reading the plate. For measurement of samples, a Victor II microplate reader (Perkin Elmer) is used with the following settings: Excitation 340 nm, Emission Donor 620 nm and Emission Acceptor 665 nm. IC50 values are calculated by curve fitting using XLfit. If not specified, reagents are purchased from Sigma-Aldrich Chemie GmBH, Buchs, Switzerland.
(§3) This assay was used to evaluate compounds displaying inhibition of p53-MDM2 interaction and p53-MDM4 interaction at IC50s of 0.005 to 50 μM (p53-MDM2 Assay 1 and p53-MDM4 Assay 1, respectively). For selected compounds displaying IC50s between […] on MDM2, a slightly modified assay is used with the following adaptations: 0.1 nM MDM2, 0.1 nM Europium labeled streptavidin and Tecan genios Pro is used as a microplate reader for the fluorescence measurements (p53-MDM2 Assay 2).
As for `COc1ccccc1-c1cc2c(n1C(C)C)C(c1ccc(Cl)cc1C)N(c1cccc(Cl)c1F)C2=O` (stereo not drawn) [Example 1, 5-(3-Chloro-2-fluoro-phenyl)-6-(4-chloro-2-methyl-phenyl)-1-isopropyl-2-(2-methoxy-phenyl)-5,6-dihydro-1H-pyrrolo[3,4-b]pyrrol-4-one], the half-inhibitory concentration (IC50) was 9.5 nM.

For a further test, the target named is human MDM4 protein (amino acids 2-185) (Homo sapiens (Human), UniProt O15151). Description: TR-FRET assay, p53-MDM4 Assay 1. The test is classed as binding. The conditions noted are these: 2.5 nM MDM4-biotinylated, 10 nM Cy5-p53 peptide. Here is the method:
as §1, §2, §3
As for `COc1ccccc1-c1cc2c(n1C(C)C)C(c1ccc(Cl)cc1C)N(c1cccc(Cl)c1F)C2=O` (stereo not drawn) [Example 1, 5-(3-Chloro-2-fluoro-phenyl)-6-(4-chloro-2-methyl-phenyl)-1-isopropyl-2-(2-methoxy-phenyl)-5,6-dihydro-1H-pyrrolo[3,4-b]pyrrol-4-one], the half-maximal inhibitory concentration (IC50) was 27800 nM.

Another test concerns the target T1, human MDM2 protein (amino acids 2-188). The experiment in a line: TR-FRET assay, p53-MDM2 Assay 2 (modified). In kind it is binding. The conditions noted are these: TR-FRET; 0.1 nM MDM2, 0.1 nM Europium labeled streptavidin, Tecan genios Pro reader; read-out: IC50 p53-MDM2 Assay 2. The procedure, abridged: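 Biotinylated human MDM2 (aa 2–188, 1.25 nM) was preincubated 15 min at room temperature with 0.625 nM Eu-streptavidin, then 10 nM Cy5-p53 peptide (aa 18–26) added for 15 min. TR-FRET ratio 665/620 nm (excitation 340 nm) was read; IC50 came from curve fitting.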
Regarding `COc1ncc(-c2cc3c(n2C(C)C)C(c2ccc(Cl)cn2)N(c2ccc(F)c(Cl)c2)C3=O)c(OC)n1` (stereo not drawn) [Example 214, 5-(3-Chloro-4-fluoro-phenyl)-6-(5-chloro-pyridin-2-yl)-2-(2,4-dimethoxy-pyrimidin-5-yl)-1-isopropyl-5,6-dihydro-1H-pyrrolo[3,4-b]pyrrol-4-one], the half-maximal inhibitory concentration (IC50) turned out to be 1.89 nM.

In the case of `COc1ncc(-c2cc3c(n2C(C)C)C(c2ccc(C#N)cc2)N(c2cc(Cl)cn(C)c2=O)C3=O)c(OC)n1` (stereo not drawn) [Example 132, 4-[5-(5-Chloro-1-methyl-2-oxo-1,2-dihydro-pyridin-3-yl)-2-(2,4-dimethoxy-pyrimidin-5-yl)-1-isopropyl-4-oxo-1,4,5,6-tetrahydro-pyrrolo[3,4-b]pyrrol-6-yl]-benzonitrile], the half-maximal inhibitory concentration (IC50) was 1.15 nM.

For `COc1ncc(-c2cc3c(n2C(C)C)C(c2ccc(Cl)c(F)c2)N(c2cc(Cl)c[nH]c2=O)C3=O)c(OC)n1` (stereo not drawn) [Example 202, 6-(4-Chloro-3-fluoro-phenyl)-5-(5-chloro-2-oxo-1,2-dihydro-pyridin-3-yl)-2-(2,4-dimethoxy-pyrimidin-5-yl)-1-isopropyl-5,6-dihydro-1H-pyrrolo[3,4-b]pyrrol-4-one], the IC50 was determined as 0.201 nM.

In the case of `COc1nc(N)ncc1-c1cc2c(n1C(C)C)C(c1ccc(C#N)cc1)N(c1cccc(Cl)c1F)C2=O` (stereo not drawn) [Example 41, 4-[2-(2-Amino-4-methoxy-pyrimidin-5-yl)-5-(3-chloro-2-fluoro-phenyl)-1-isopropyl-4-oxo-1,4,5,6-tetrahydro-pyrrolo[3,4-b]pyrrol-6-yl]-benzonitrile], the 50% inhibitory concentration (IC50) is 0.349 nM.

As for `COc1cccnc1-c1cc2c(n1C(C)C)C(c1ccc(Cl)cc1)N(c1cc(Cl)ccc1C)C2=O` (stereo not drawn) [Example 113, 5-(5-Chloro-2-methyl-phenyl)-6-(4-chloro-phenyl)-1-isopropyl-2-(3-methoxy-pyridin-2-yl)-5,6-dihydro-1H-pyrrolo[3,4-b]pyrrol-4-one], the IC50 worked out at 0.216 nM.

`COc1ncncc1-c1cc2c(n1C(C)C)C(c1ccc(Cl)cc1)N(c1cc(Cl)ccc1C)C2=O` (stereo not drawn) [Example 16, 5-(5-Chloro-2-methyl-phenyl)-6-(4-chloro-phenyl)-1-isopropyl-2-(4-methoxy-pyrimidin-5-yl)-5,6-dihydro-1H-pyrrolo[3,4-b]pyrrol-4-one]: the IC50 is 0.308 nM.

`COc1ncc(-c2cc3c(n2C(C)C)C(c2ccc(Cl)cc2)N(C2CCC(=O)N(C)C2)C3=O)c(OC)n1` (stereo not drawn) [Example 109, 6-(4-Chloro-phenyl)-2-(2,4-dimethoxy-pyrimidin-5-yl)-1-isopropyl-5-(1-methyl-6-oxo-piperidin-3-yl)-5,6-dihydro-1H-pyrrolo[3,4-b]pyrrol-4-one]: the 50% inhibitory concentration (IC50) came to 1.6 nM.

With `COc1nc(N(C)C)ncc1-c1cc2c(n1C(C)C)C(c1ccc(C#N)cc1)N(c1c[nH]c(=O)c(Cl)c1)C2=O` (stereo not drawn) [Example 136, 4-[5-(5-Chloro-6-oxo-1,6-dihydro-pyridin-3-yl)-2-(2-dimethylamino-4-methoxy-pyrimidin-5-yl)-1-isopropyl-4-oxo-1,4,5,6-tetrahydro-pyrrolo[3,4-b]pyrrol-6-yl]-benzonitrile], the half-inhibitory concentration (IC50) was 0.131 nM.

Consider `COc1ncc(-c2cc3c(n2C(C)C)C(c2ccc(Cl)cc2)N(c2cc(Cl)cn(C)c2=O)C3=O)c(OC)n1` (stereo not drawn) [Example 70, 5-(5-Chloro-1-methyl-2-oxo-1,2-dihydro-pyridin-3-yl)-6-(4-chloro-phenyl)-2-(2,4-dimethoxy-pyrimidin-5-yl)-1-isopropyl-5,6-dihydro-1H-pyrrolo[3,4-b]pyrrol-4-one], for which the IC50 came out at 0.235 nM.

As to `CNC(=O)c1ccc(OC)c(-c2cc3c(n2C(C)C)C(c2ccc(Cl)cc2C)N(c2cc(Cl)ccc2C)C3=O)c1` (stereo not drawn) [Example 31, 3-[5-(5-Chloro-2-methyl-phenyl)-6-(4-chloro-2-methyl-phenyl)-1-isopropyl-4-oxo-1,4,5,6-tetrahydro-pyrrolo[3,4-b]pyrrol-2-yl]-4-methoxy-N-methyl-benzamide], the concentration for half-maximal inhibition (IC50) was determined as 0.184 nM.

As for `COc1nc(N)ncc1-c1cc2c(n1C(C)C)C(c1ccc(Cl)cc1)N([C@H]1CC[C@H](OC)CC1)C2=O` (stereo partly drawn) [Example 141, 2-(2-Amino-4-methoxy-pyrimidin-5-yl)-6-(4-chloro-phenyl)-1-isopropyl-5-(trans-4-methoxy-cyclohexyl)-5,6-dihydro-1H-pyrrolo[3,4-b]pyrrol-4-one], the half-maximal inhibitory concentration (IC50) came to 6.85 nM.

`COc1ccncc1-c1cc2c(n1C(C)C)C(c1ccc(Cl)cc1)N(c1cc(Cl)ccc1C)C2=O` (stereo not drawn) [Example 13, 5-(5-Chloro-2-methyl-phenyl)-6-(4-chloro-phenyl)-1-isopropyl-2-(4-methoxy-pyridin-3-yl)-5,6-dihydro-1H-pyrrolo[3,4-b]pyrrol-4-one]: the half-inhibitory concentration (IC50) was 0.176 nM.

As for `COc1ccccc1-c1cc2c(n1C(C)C)C(C)(c1ccc(Cl)cc1)N(c1cc(Cl)ccc1C)C2=O` (stereo not drawn) [Example 116, 5-(5-Chloro-2-methyl-phenyl)-6-(4-chloro-phenyl)-1-isopropyl-2-(2-methoxy-phenyl)-6-methyl-5,6-dihydro-1H-pyrrolo[3,4-b]pyrrol-4-one], the IC50 worked out at 0.496 nM.

Take `COc1ccc(C(=O)N2CCOCC2)cc1-c1cc2c(n1C(C)C)C(c1ccc(Cl)cc1)N(c1ccc(F)c(Cl)c1)C2=O` (stereo not drawn) [Example 55, 5-(3-Chloro-4-fluoro-phenyl)-6-(4-chloro-phenyl)-1-isopropyl-2-[2-methoxy-5-(morpholine-4-carbonyl)-phenyl]-5,6-dihydro-1H-pyrrolo[3,4-b]pyrrol-4-one]: the IC50 is 0.287 nM.

Turning to `COc1ncc(-c2cc3c(n2C(C)C)C(c2ccc(C#N)cc2)N(c2cc(Cl)c[nH]c2=O)C3=O)c(OC)n1` (stereo not drawn) [Example 126, 4-[5-(5-Chloro-2-oxo-1,2-dihydro-pyridin-3-yl)-2-(2,4-dimethoxy-pyrimidin-5-yl)-1-isopropyl-4-oxo-1,4,5,6-tetrahydro-pyrrolo[3,4-b]pyrrol-6-yl]-benzonitrile], the half-maximal inhibitory concentration (IC50) amounted to 0.779 nM.

As for `COc1nc(N(C)C)ncc1-c1cc2c(n1C(C)C)C(c1ccc(C#N)cc1)N(c1cc(Cl)cnc1OC)C2=O` (stereo not drawn) [Example 207, 4-[5-[5-Chloro-2-methoxy-pyridin-3-yl)-2-(2-dimethylamino-4-methoxy-pyrimidin-5-yl)-1-isopropyl-4-oxo-1,4,5,6-tetrahydro-pyrrolo[3,4-b]pyrrol-6-yl]-benzonitrile], the IC50 worked out at 0.185 nM.

With `COc1nc(N(C)C)ncc1-c1cc2c(n1C(C)C)[C@H](c1ccc(C#N)cc1)N(c1cc(Cl)c(=O)n(C)c1)C2=O` [Example 232, (S)-4-(5-(5-Chloro-1-methyl-6-oxo-1,6-dihydropyridin-3-yl)-2-(2-(dimethylamino)-4-methoxypyrimidin-5-yl)-1-isopropyl-4-oxo-1,4,5,6-tetrahydropyrrolo[3,4-b]pyrrol-6-yl)benzonitrile], the IC50 was 0.069 nM.

Turning to `COc1nc(N(C)C)ncc1-c1c(C#N)c2c(n1C(C)C)C(c1ccc(Cl)cc1)N(c1cc(Cl)c(=O)n(C)c1)C2=O` (stereo not drawn) [Example 164, 5-(5-Chloro-1-methyl-6-oxo-1,6-dihydro-pyridin-3-yl)-6-(4-chloro-phenyl)-2-(2-dimethylamino-4-methoxy-pyrimidin-5-yl)-1-isopropyl-4-oxo-1,4,5,6-tetrahydro-pyrrolo[3,4-b]pyrrole-3-carbonitrile], the IC50 came out at 0.121 nM.

Take `COc1ncc(-c2cc3c(n2C(C)C)C(c2ccc(Cl)cc2C)N(c2cc(Cl)c(=O)n(C)c2)C3=O)c(OC)n1` (stereo not drawn) [Example 146, 5-(5-Chloro-1-methyl-6-oxo-1,6-dihydro-pyridin-3-yl)-6-(4-chloro-2-methyl-phenyl)-2-(2,4-dimethoxy-pyrimidin-5-yl)-1-isopropyl-5,6-dihydro-1H-pyrrolo[3,4-b]pyrrol-4-one]: the IC50 was found to be 0.216 nM.
